Measured values as given in patent US6660755B2, “Substituted diaryl or diheteroaryl methans, ethers and amines having retinoid agonist, antagonist or inverse agonist type biological activity” (Allergan, Inc., priority 1997, dated 2003).

Assays:
RARα = target: T1, RARα (Homo sapiens, UniProt P10276); assay: Ligand binding assay, RARα
T1 sequence (P10276 1-462): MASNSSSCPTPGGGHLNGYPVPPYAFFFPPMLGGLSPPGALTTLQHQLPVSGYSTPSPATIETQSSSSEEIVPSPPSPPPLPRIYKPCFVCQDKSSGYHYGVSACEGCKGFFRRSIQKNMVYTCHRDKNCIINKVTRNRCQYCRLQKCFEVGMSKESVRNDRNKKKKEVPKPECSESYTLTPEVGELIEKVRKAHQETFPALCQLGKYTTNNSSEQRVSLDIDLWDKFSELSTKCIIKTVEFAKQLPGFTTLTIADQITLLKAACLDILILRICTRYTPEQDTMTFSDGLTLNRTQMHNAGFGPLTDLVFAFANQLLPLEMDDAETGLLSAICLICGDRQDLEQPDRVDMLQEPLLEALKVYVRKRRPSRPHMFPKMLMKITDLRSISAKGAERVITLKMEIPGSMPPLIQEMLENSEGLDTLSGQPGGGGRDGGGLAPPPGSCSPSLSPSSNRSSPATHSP
Text: (§1) A holoreceptor transactivation assay and a ligand binding assay which measure the antagonist/agonist like activity of the compounds of the invention, or their ability to bind to the several retinoid receptor subtypes, respectively, are described in published PCT Application No. WO WO93/11755 (particularly on pages 30-33 and 37-41) published on Jun. 24, 1993, the specification of which is also incorporated herein by reference. A detailed experimental procedure for holoreceptor transactivations has been described by Heyman et al. Cell 1992, 68, 397-406; Allegretto et al. J. Biol. Chem. 1993 268, 26625-26633, and Mangelsdorf et al. The Retinoids: Biology, Chemistry and Medicine, pp 319-349, Raven Press Ltd., New York, which are expressly incorporated herein by reference. The results obtained in this assay are expressed in EC50 numbers, as they are also in the chimeric receptor transactivation assay. The results of ligand binding assay are expressed in Kd numbers. (See Cheng et al. Biochemical Pharmacology 22, 3099-3108, expressly incorporated herein by reference.) Still another transactivation assay, the “PGR assay” is described in the publication Klein et al. J. Biol. Chem. 1996, 271, 22692-22696, which is expressly incorporated herein by reference, and a detailed description is also provided below. The results of the PGR assay are also expressed in EC50 numbers (nanomolar concentration).

RARβ = target: T2, RARβ (Homo sapiens, UniProt P10826); assay: Ligand binding assay, RARβ; settings: read-out: Kd RABβ
T2 sequence (P10826 1-455): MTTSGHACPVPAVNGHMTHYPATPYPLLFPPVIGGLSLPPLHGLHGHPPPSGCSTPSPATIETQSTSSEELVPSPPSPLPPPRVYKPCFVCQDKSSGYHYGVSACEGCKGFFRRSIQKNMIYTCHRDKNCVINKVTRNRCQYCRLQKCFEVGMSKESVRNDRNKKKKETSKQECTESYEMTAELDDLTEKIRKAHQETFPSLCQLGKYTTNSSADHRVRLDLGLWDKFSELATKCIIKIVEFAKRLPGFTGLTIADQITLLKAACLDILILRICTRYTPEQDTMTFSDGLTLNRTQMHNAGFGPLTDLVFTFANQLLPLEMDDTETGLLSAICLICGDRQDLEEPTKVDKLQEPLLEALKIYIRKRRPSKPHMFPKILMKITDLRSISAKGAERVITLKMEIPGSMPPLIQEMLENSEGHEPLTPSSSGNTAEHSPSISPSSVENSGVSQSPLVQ
Text: as §1

RARγ = target: T3, RARγ (Homo sapiens, UniProt P13631); assay: Ligand binding assay, RARγ
T3 sequence (P13631 1-454): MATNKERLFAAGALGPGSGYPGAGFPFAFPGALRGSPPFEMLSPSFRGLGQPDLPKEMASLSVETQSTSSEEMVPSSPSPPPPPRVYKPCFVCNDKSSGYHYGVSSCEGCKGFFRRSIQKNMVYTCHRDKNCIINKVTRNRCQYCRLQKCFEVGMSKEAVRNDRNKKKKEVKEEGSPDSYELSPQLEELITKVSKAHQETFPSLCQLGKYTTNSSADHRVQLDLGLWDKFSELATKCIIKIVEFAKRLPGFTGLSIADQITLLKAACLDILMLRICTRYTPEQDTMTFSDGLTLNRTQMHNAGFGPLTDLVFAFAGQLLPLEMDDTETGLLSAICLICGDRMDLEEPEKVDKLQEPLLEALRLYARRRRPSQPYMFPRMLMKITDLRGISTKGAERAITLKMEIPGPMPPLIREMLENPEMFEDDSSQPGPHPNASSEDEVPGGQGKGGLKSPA
Text: as §1

Row | Compound | Kd (RARα) | Kd (RARβ) | Kd (RARγ)
1 | CC(C)(C)c1ccc(C#Cc2ccc(C(=O)O)c(F)c2)cc1Oc1ccc(N=[N+]=[N-])cc1 [Compound 17, 4-[[4′-tert-Butyl-3′-(4″-azido)phenoxy]phenylethynyl]-2-fluoro-benzoic Acid] | 20 nM | 24 nM | 18 nM
2 | Cc1ccc(Oc2cc(C#Cc3ccc(C(=O)O)cc3)ccc2C(C)(C)C)cc1 [Compound 30, 4-[[4′-tert-Butyl-3′-(4″-methyl)phenoxy]phenylethynyl]benzoic Acid] | 48 nM | 13 nM | 41 nM
3 | CC(C)(C)c1ccc(C#Cc2ccc(C(=O)O)c(F)c2)cc1Oc1ccc(I)cc1 [Compound 20, 4-[[4′-tert-Butyl-3′-(4″-iodo)phenoxy]phenylethynyl]-2-fluoro-benzoic Acid] | 22.5 nM | 16 nM | 84 nM
4 | CC(C)(C)c1ccc(C#Cc2ccc(C(=O)O)cc2)cc1Oc1ccc(C(F)(F)F)cc1 [Compound 3, 4-[[4′-tert-Butyl-3′-(4″-trifluoromethyl)phenoxy]phenylethynyl]benzoic Acid] | 90 nM | 44 nM | 102 nM
5 | CC(C)(C)c1ccc(C#Cc2ccc(C(=O)O)c(F)c2)cc1Oc1ccc(C(F)(F)F)cc1 [Compound 4, 4-[[4′-tert-Butyl-3′-(4″-trifluoromethyl)phenoxy]phenylethynyl]-2-fluoro-benzoic Acid] | 17 nM | 14.5 nM | 59 nM

The remaining compounds from weak to strong by Kd (RARα), led by results:

Row | Kd (RARα) | Kd (RARβ) | Kd (RARγ) | Compound
6 | 17 nM | 36 nM | 162 nM | CC(C)(C)c1ccc(/C=C/c2ccc(C(=O)O)cc2)cc1Oc1ccc(C(F)(F)F)cc1 [Compound 22, 4-[[4′-tert-Butyl-3′-(4″-trifluoromethyl)phenoxy]vinyl]benzoic Acid]
7 | 12.5 nM | 0.8 nM | 33 nM | Cc1ccc(Oc2cc(/C=C/c3ccc(C(=O)O)cc3)ccc2C(C)(C)C)cc1 [Compound 15, 4-[[4′-tert-Butyl-3′-(4″-methyl)phenoxy]phenylvinyl]benzoic Acid]
8 | 12 nM | 9 nM | 22.5 nM | CCc1ccc(Oc2cc(C#Cc3ccc(C(=O)O)c(F)c3)ccc2C(C)(C)C)cc1 [Compound 25, 4-[[4′-tert-Butyl-3′-(4″-ethyl)phenoxy]phenylethynyl]-2-fluoro-benzoic Acid]
9 | 11 nM | 10 nM | 17 nM | Cc1ccc(Oc2cc(C#Cc3ccc(C(=O)O)c(F)c3)ccc2C(C)(C)C)cc1 [Compound 26, 4-[[4′-tert-Butyl-3′-(4″-methyl)phenoxy]phenylethynyl]-2-fluoro-benzoic Acid]
